Measured values: patent publication US8580959B2, “Azolotriazinone melanin concentrating hormone receptor-1 antagonists” (Bristol-Myers Squibb Company, priority 2008, dated 2013)
Where a name gives a salt, the structure may show the parent alone.

What was measured:
Male SPRAGUE DAWLEY rats = assay: Assessment of in vivo MCHR activity (body weight, rats with choice of chow and high fat high sugar diet); set-up: species or system rat; details: dose 30 mg/kg p.o. daily day 0 through day 4, rats; parent dosed as its prodrug example (22, 63, 50)
Procedure: Assessment of In Vivo MCHR Activity
Male SPRAGUE DAWLEY® (CD, Charles River Breeding Laboratory) rats weighing approximately 240 grams were place in individual plastic cages with ALPHADRI® bedding. The room was maintained at 72° F. and 50% humidity, and a 12/12 light dark cycle with lights out at 1600 hours. The rats were conditioned for 5 days prior to the start of the study to having a choice of foods. A normal chow (HARLAN TEKLAD®, 2018) that contains 18% protein, 5% fat and 73% carbohydrate and a high fat high sugar diet (Research Diets (D2327)) that contains 20% protein, 40% fat and 40% carbohydrate where the carbohydrate is entirely sucrose and the fat is soybean and coconut oil. […] Body weight and consumption of both kinds of food as well as water intake were measured daily. Water was available ad lib throughout the study. Food consumption is presented as daily caloric consumption which is the sum of grams of chow multiplied by the Kcal per gram (3.5) plus grams of high fat high sugar multiplied by Kcal per gram (4.59).
Baseline body weight was measured prior to drug treatment on day 0 of the study. Baseline food consumption was the average of the 3 days prior to the first drug treatment. Drug was administered daily p.o. at 2.0 ml/kg at 1500 hours beginning on day 0 and continuing daily through day 4 as a suspension in 0.5% methyl cellulose, 0.1% Tween 80 in water at 3.0, 10 and 30 mg/kg p.o. All data were evaluated using ANOVA and Fishers PLSD statistics.

[1] = target: T1, mutated (E4Q, A5T) hMCHR1 receptor (Homo sapiens, UniProt Q99705, A5T/E4Q); assay: Radioligand binding assay for assessment of MCHR1 activity (human); details: membranes of HEK-293 cells, [Phe13,[125I]Tyr19]-MCH competition
T1 construct: expressed in transfected cells; host or cells: HEK-293 (stably transfected), membranes
T1 sequence (Q99705 whole entry E4Q/A5T): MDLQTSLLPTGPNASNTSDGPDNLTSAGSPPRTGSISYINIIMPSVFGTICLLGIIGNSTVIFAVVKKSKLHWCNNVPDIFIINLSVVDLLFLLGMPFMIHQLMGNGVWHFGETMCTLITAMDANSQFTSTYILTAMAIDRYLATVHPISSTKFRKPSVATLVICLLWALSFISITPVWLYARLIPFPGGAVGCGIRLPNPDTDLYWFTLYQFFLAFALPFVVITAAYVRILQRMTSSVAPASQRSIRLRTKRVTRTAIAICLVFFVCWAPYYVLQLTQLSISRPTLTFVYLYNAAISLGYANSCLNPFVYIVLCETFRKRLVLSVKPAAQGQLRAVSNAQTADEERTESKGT
Procedure: Radioligand Binding Assay for Assessment of MCHR1 Activity
Membranes from stably transfected HEK-293 cells expressing a mutated (E4Q, A5T) hMCHR1 receptor were prepared by dounce homogenization and differential centrifugation. Binding experiments were carried out with 0.5-1.0 ug of membrane protein incubated in a total of 0.2 ml in 25 mM HEPES (pH 7.4) with 10 mM MgCl2, 2 mM EGTA, and 0.1% BSA (Binding Buffer) for 90 min. […] Filters were dried, 0.05 ml microscint 20 was added to each well and radioactivity was subsequently quantified by scintillation counting on a TOPCOUNT® microplate scintillation counter (Packard). Inhibitory constants were determined by nonlinear least squares analysis using a four parameter logistic equation.

MCHR1 Rat = MCHR1 Rat (Rattus norvegicus, UniProt P97639); assay: MCHR1 rat binding (radioligand binding assay)
Chain of MCHR1 Rat (P97639 whole entry): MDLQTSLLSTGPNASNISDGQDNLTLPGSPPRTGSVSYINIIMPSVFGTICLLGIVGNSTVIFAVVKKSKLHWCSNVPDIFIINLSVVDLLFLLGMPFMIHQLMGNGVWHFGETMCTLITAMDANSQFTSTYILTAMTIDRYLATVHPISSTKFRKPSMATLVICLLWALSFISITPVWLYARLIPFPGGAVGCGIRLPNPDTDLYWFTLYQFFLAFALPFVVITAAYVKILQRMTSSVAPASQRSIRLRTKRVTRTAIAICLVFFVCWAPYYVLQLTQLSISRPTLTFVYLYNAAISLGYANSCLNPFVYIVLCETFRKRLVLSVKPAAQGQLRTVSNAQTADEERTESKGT

Row | Ki [1] | Ki (MCHR1 Rat) | Molecule | % Weight Reduction versus Vehicle (Male SPRAGUE DAWLEY rats)
1 | 4.42 nM | 2.76 nM | COc1cc(-n2cnn3cc(-c4ccc(Cl)cc4)cc3c2=O)ccc1OCC(C)(C)O [Example 1, 6-(4-Chlorophenyl)-3-(4-(2-hydroxy-2-methylpropoxy)-3-methoxyphenyl)pyrrolo[1,2-f][1,2,4]triazin-4(3H)-one] | –
2 | 4.49 nM | 2.79 nM | COc1cc(-n2cnn3cc(-c4ccc(Cl)cc4)cc3c2=O)ccc1OCC(O)C1CC1 (centres unmarked) [Example 3, 6-(4-Chlorophenyl)-3-(4-(2-cyclopropyl-2-hydroxyethoxy)-3-methoxyphenyl)pyrrolo[1,2-f][1,2,4]triazin-4(3H)-one] | –
3 | 0.52 nM | 0.7 nM | COc1cc(-n2cnn3cc(-c4ccc(Cl)cc4)cc3c2=O)ccc1OCCN1CCCC1 [Example 4, 6-(4-Chlorophenyl)-3-(3-methoxy-4-(2-(pyrrolidin-1-yl)ethoxy)phenyl)pyrrolo[1,2-f][1,2,4]triazin-4(3H)-one] | –
4 | 2.2 nM | 0.8 nM | COc1cc(-n2cnn3nc(-c4ccc(Cl)cc4)cc3c2=O)ccc1OCCN1CCC(O)C1 (centres unmarked) [Example 6, 6-(4-Chlorophenyl)-3-(4-(2-(3-hydroxypyrrolidin-1-yl)ethoxy)-3-methoxyphenyl)pyrazolo[1,5-f][1,2,4]triazin-4(3H)-one] | –
5 | 0.17 nM | – | COc1cc(-n2cnn3cc(-c4ccc(Cl)cc4)cc3c2=O)ccc1OCC(C)N1CCCC1 (centres unmarked) [Example 13, 6-(4-Chlorophenyl)-3-[3-methoxy-4-(2-pyrrolidin-1-yl-propoxy)-phenyl]-3H-pyrrolo[2,1-f] [1,2,4]triazin-4-one] | –
6 | 9.4 nM | – | COc1cc(-n2cnn3cc(-c4ccc(Cl)cc4)cc3c2=O)ccc1N1C[C@H](OC(=O)[C@@H](N)C(C)C)[C@H](OC(=O)[C@@H](N)C(C)C)C1 [Example 56, (2S,2′S)-((3S,4R)-1-(4-(6-(4-Chlorophenyl)-4-oxopyrrolo[1,2-f][1,2,4]triazin-3(4H)-yl)-2-methoxyphenyl)pyrrolidine-3,4-diyl)bis(2-amino-3-methylbutanoate), 2TFA] | –

Second part, the molecule before the results:

Row | Molecule | Ki [1] | Ki (MCHR1 Rat) | % Weight Reduction versus Vehicle (Male SPRAGUE DAWLEY rats)
7 | 6-(4-Chlorophenyl)-3-(4-(2-hydroxy-2-methylpropoxy)-3-methoxyphenyl)pyrrolo[1,2-f][1,2,4]triazin-4(3H)-one [Example 1] | – | – | 6.9%
8 | COc1ccc(-n2cnn3cc(-c4ccc(Cl)cc4)cc3c2=O)cc1OC [Example 2, 6-(4-Chlorophenyl)-3-(3,4-dimethoxyphenyl)pyrrolo[1,2-f][1,2,4]triazin-4(3H)-one] | 21.4 nM | 8.29 nM | –
9 | O=c1c2cc(-c3ccc(Cl)cc3)cn2ncn1-c1ccc(N2CCC(O)CC2)nc1 [Example 18, 6-(4-Chlorophenyl)-3-(6-(4-hydroxypiperidin-1-yl)pyridin-3-yl)pyrrolo[1,2-f][1,2,4]triazin-4(3H)-one] | 11.5 nM | – | –
10 | O=c1c2cc(-c3ccc(Cl)cn3)cn2ncn1-c1ccc(N2CC[C@@H](O)C2)nc1 [Example 31, 6-(5-Chloropyridin-2-yl)-3-[6-(3-hydroxy-pyrrolidin-1-yl)-pyridin-3-yl]-3H-pyrrolo[2,1-f][1,2,4]triazin-4-one] | 124 nM | – | –
11 | COc1cc(-n2cnn3cc(-c4ccc(Cl)cn4)cc3c2=O)ccc1OCC(C)(C)O [Example 33, 6-(5-Chloropyridin-2-yl)-3-[4-(2-hydroxy-2-methyl-propoxy)-3-methoxy-phenyl]-3H-pyrrolo[2,1-f][1,2,4]triazin-4-one] | – | – | 11.2%
12 | COc1ccc(-n2cnn3cc(-c4ccc(Cl)cc4)nc3c2=O)cc1OC [Example 38, 6-(4-Chlorophenyl)-3-(3,4-dimethoxy-phenyl)-3H-imidazo[2,1-f][1,2,4]triazin-4-one] | 76.1 nM | – | –
13 | COc1cc(-n2cnn3cc(-c4ccc(Cl)cn4)cc3c2=O)ccc1OCC1(O)CC(F)(F)C1 [Example 46, 6-(5-Chloropyridin-2-yl)-3-(4-((3,3-difluoro-1-hydroxycyclobutyl)methoxy)-3-methoxyphenyl)pyrrolo[1,2-f][1,2,4]triazin-4(3H)-one-4(3H)-one] | – | – | 2.6%
14 | COc1cc(-n2cnn3cc(-c4ncc(Cl)cn4)cc3c2=O)ccc1OCC1(O)CC(F)(F)C1 [Example 57, 6-(5-Chloropyrimidin-2-yl)-3-(4-((3,3-difluoro-1-hydroxycyclobutyl)methoxy)-3-methoxyphenyl)pyrrolo[1,2-f][1,2,4]triazin-4(3H)-one] | 9 nM | – | –
15 | CCS(=O)(=O)C[C@H](COc1ccc(-n2cnn3cc(-c4ncc(Cl)cn4)cc3c2=O)cc1OC)OC(=O)CN [Example 61, (S)-1-(4-(6-(5-Chloropyrimidin-2-yl)-4-oxopyrrolo[1,2-f][1,2,4]triazin-3(4H)-yl)-2-methoxyphenoxy)-3-(ethylsulfonyl)propan-2-yl 2-aminoacetate, TFA] | 126 nM | – | –
